What was measured:
[1] = test system: acute and chronic visceral, inflammatory and neuropathic pain; assay: standard preclinical pain models; type: in vivo
Description: (§1) The analgesic effect of CR845 was recordable within 15 minutes post-administration and lasted for up to 18 hours following single-dose administration.

[2] = test system: “Chung Model” of neuropathic pain; assay: “Chung Model” of neuropathic pain (paw withdrawal threshold); type: in vivo, rats; details: for blockade of CR845 effect by kappa antagonist into injured paw: intraplantar 0.2 mg, 15 min prior to CR845 1 mg/kg, rats
Description: FIG. 1: Efficacy of CR845 in “Chung Model” of neuropathic pain is blocked with Peripheral (Intrapaw) administration of a kappa antagonist (norBNI) in rats. *** denotes p<0.001 compared to vehicle-treated controls (two-way ANOVA). Vehicle or Nor-BNI was administered intraplantarly (0.2 mg) 15 min prior to CR845. Injection (1 mg/kg). N=6 male rats/group, mean±SEM.
The peripheral mechanism of action of CR845 is supported preclinically by both biochemical in vitro assays and in vivo functional pharmacological studies. […] Moreover, in standard preclinical pain models, such as the “Chung Model” of neuropathic pain, the analgesic action of CR845 was blocked with kappa opioid receptor antagonists administered directly to the local site of injury, indicating a peripheral site of action for CR845 (FIG. 1). In the “Chung Model”, neuropathic pain is induced experimentally by ligating spinal nerves mediating sensation for a hind limb. […] Sets of different thickness filaments are used to test sensitivity, each of which is designed to produce a given force (in grams) upon bending after contact. By testing with these filaments, the minimum force to evoke a withdrawal response defines the paw withdrawal threshold. The nerve injury produces a marked reduction in paw withdrawal thresholds (increased sensitivity to force) in response to probing with the filaments.

[3] = pharmacokinetic studies, drug in extracted brain tissue; type: in vivo; details: animals, analgesic and supra-analgesic doses
[4] = test system: pro-inflammatory mediators; assay: production and release of pro-inflammatory mediators; details: preclinical
Description: as §1

[5] = test system: patients undergoing laparoscopic hysterectomy; details: human, in vivo
[6] = test system: patients following bunionectomy surgery; details: human, in vivo
human subjects = details: in vivo

## CC(C)C[C@@H](NC(=O)[C@@H](Cc1ccccc1)NC(=O)[C@H](N)Cc1ccccc1)C(=O)N[C@H](CCCCN)C(=O)N1CCC(N)(C(=O)O)CC1 [CR845, D-Phe-D-Phe-D-Leu-D-Lys-[ω(4-aminopiperidine-4-carboxylic acid)]-OH]
[1]; following single-dose administration
  duration of analgesic effect: up to 18 hours
[1]; preclinical pain models
  onset of analgesic effect post-administration: ≤ 15 min
[1]; standard preclinical pain models
  attenuation of pain in preclinical pain models: successfully attenuated acute and chronic visceral, inflammatory and neuropathic pain in a dose-dependent manner
[2]; I.V. CR845 1 mg/kg, male rats
  paw withdrawal threshold (neuropathic pain): reduces this neuropathic pain as demonstrated by a subsequent increase in the withdrawal threshold
[3]
  concentration of drug in extracted brain tissue: no measurable concentrations of drug in extracted brain tissue
[4]
  production and release of pro-inflammatory mediators: decreased the production and release of pro-inflammatory mediators
[5]
  PID for 0-4, 0-8 and 0-16 hour time intervals vs Placebo/Placebo: statistically significant improvements
  Responders in global evaluation of study medication vs placebo: higher percentage of patients
  SPID over 0-8, 0-12 and 0-16 time periods vs Placebo/Placebo: reduced pain intensity compared to the Placebo/Placebo group in a statistically significant manner
  greater reduction in pain intensity at 24 hours vs Placebo/Placebo: approximately 60%
  improvement in mean SPID values 0-4 hour vs Placebo/Placebo: 3.5 fold
  mean TOTPAR0-2 (pain relief within first 2 hours) vs Placebo/Placebo: statistically superior pain relief
  mean TOTPAR 0-12 hour interval vs Placebo/Placebo: reached statistical significance
  mean TOTPAR scores across all intervals vs Placebo/Placebo: numerically superior
  pain intensity for 0-8 and 0-16 hour time intervals vs Placebo/Placebo: statistically significant decreases in pain intensity
  patients who experienced nausea: 26.1%
  patients who experienced vomiting: 1.7%
  pruritus reported vs placebo: less pruritus
  reduction of incidence of nausea vs placebo: approximately 50%
  reduction of incidence of vomiting vs placebo: ~80%
  reported pain relief (TOTPAR) for 0-4, 2-4 and 0-8 hour time periods: statistically significant improvements in reported pain relief
[5]; iv
  mean PID from baseline at each time interval vs Placebo/Placebo: numerically superior
[5]; iv, 0.04 mg/kg
  blood sodium increase (hypernatremia), share of total patients: 14%
[6]
  SPID0-36 vs placebo: statistically significant
  SPID0-48 vs placebo: statistically significant
  SPID scores 0-24, 0-36, 0-48 vs placebo: Numerical improvements in SPID scores
  acute psychiatric side effects: no evidence of acute psychiatric side effects
  cases of somnolence reported: seven
  mean PID from baseline at each time interval across 48 hours vs placebo: numerically superior
  mean plasma sodium concentration vs normal range: not outside the normal physiological range
  most frequent TEAEs (greater than 10%): transient facial tingling and somnolence
  pain intensity differences 0-12 hour time interval vs placebo: Statistically significant reductions in pain intensity differences
  pain intensity differences 0-36 hour time interval vs placebo: Statistically significant reductions in pain intensity differences
  reduction of incidence of nausea vs placebo: 60%
  reduction of incidence of vomiting vs placebo: 80%
  rise of mean plasma sodium concentration from baseline: approximately 3%
[6]; iv, 0.005 mg/kg
  SPID0-24 vs placebo: statistically significant reduction in pain intensity compared to placebo
Human subjects
  drug-related respiratory depression: no evidence of drug-related respiratory depression

## Oc1ccc2c3c1O[C@H]1c4[nH]c5c(c4C[C@@]4(O)[C@@H](C2)N(CC2CC2)CC[C@]314)C[C@@]1(O)[C@H]2Cc3ccc(O)c4c3[C@@]1(CCN2CC1CC1)[C@H]5O4 [nor-BNI, nor-binaltorphamine]
[2]
  blockade of CR845 effect by kappa antagonist into injured paw: significantly reduces the effect of CR845
[2]; listed as norBNI
  blockade of CR845 effect by kappa antagonist into injured paw: blocked
